Our source for the IC50 values is PMC4900628, “Critical Evaluation of P2X7 Receptor Antagonists in Selected Seizure Models” (PLoS ONE, 2016).

The term IC50 denotes the concentration needed to halve the response being measured.

Molecules are shown by their SMILES. Several values for one entry are separate records, joined by “and”; a condition that tells them apart may be missing. Equal entries are not always repeated.

The target in the assay is T1, human P2X7R (Homo sapiens, UniProt Q99572).
T1 construct: expressed in transfected cells
T1 sequence (Q99572 1-595): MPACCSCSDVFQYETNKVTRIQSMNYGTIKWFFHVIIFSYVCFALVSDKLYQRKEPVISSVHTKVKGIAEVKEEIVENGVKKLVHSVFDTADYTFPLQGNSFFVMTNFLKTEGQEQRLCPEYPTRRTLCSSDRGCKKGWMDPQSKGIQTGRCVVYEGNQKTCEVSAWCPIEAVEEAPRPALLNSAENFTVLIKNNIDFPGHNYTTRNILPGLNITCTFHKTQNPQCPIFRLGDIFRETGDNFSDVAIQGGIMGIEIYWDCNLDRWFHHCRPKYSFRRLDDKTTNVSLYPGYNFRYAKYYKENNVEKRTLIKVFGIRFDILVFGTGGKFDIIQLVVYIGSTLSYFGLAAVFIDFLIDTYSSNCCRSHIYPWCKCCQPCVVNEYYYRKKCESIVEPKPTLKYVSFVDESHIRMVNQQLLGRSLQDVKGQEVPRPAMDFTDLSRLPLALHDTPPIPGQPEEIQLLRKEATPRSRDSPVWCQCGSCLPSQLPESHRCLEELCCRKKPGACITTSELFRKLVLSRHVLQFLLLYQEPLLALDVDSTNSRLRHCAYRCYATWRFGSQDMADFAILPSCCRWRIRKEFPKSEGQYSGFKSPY
Briefly: fluorometric Ca2+ assay (ATP-induced [Ca2+]i response) in HEKhP2X7 cells. Type of assay: cell-based. To be noted: fluo-4, 1 mM ATP, read-out: Potency IC50 ± SEM, Human P2X7R. How it is done: Cells were grown in a humidified incubator at 37°C in an atmosphere supplemented with 5% CO2. […] HEK293mP2X7 were cultured in DMEM under similar conditions as described above, but containing 100 μg/ml zeocin (Invitrogen). […] Expression of the transgene was induced by supplementing the medium with 1 μg/ml tetracycline (Sigma-Aldrich, Taufkirchen, Germany) 24 h prior to the experiments. All fluorometric Ca^2+ assays in cell suspensions were performed in 384-microwell plates (Corning, No. 3655, Lowell, MA, USA) with a fluorescence-imaging microplate reader (POLARstar Omega, BMG Labtech, Offenburg, Germany) (for details, see [61, 68]). […] Microwell plates were repetitively scanned every 16 s in the fast scanning mode of the device. […] Data were normalized to the baseline values before ATP application (F/F0). […] ATP-solution was freshly prepared in Mg^2+-free HBS solution and adjusted to pH 7.4. Aliquots of stock solutions were stored at -20°C and freshly diluted with the appropriate HBS solution. […] Results are expressed as mean ± SEM. […] In the PTZ-T, the number of animals in the group with clonic seizures and the latency time were analysed using Fisher's exact probability test and the Mann-Whitney rank sum test, respectively. For multiple comparisons of the latency time a one-way ANOVA with the Holm-Sidak post hoc test was used. The influence of AFC on the plasma and brain concentrations of the antiepileptic drugs was statistical compared using the same procedure. In the PTZ-kindling model, the mean seizure stage within a group was calculated in relation to the number of PTZ-injections. Statistical comparison between vehicle- and compound-treated groups in this model was performed with two-way repeated measures ANOVA, followed by the Holm-Sidak post hoc test. […] In fully kindled rats, the calculated mean seizure stage within a group after vehicle- and compound-treatment were compared using a paired t-test. P < 0.05 was the accepted minimum level of significance.
With `CCOc1ccc(Nc2ccc(/C(=C3C=C/C(=[N+](/CC)Cc4cccc(S(=O)(=O)[O-])c4)C=C/3C)c3ccc(N(CC)Cc4cccc(S(=O)(=O)O)c4)cc3C)cc2)cc1` [Brilliant Blue G], the IC50 came out at 0.98 ± 0.07 µM.

For the compound `O=C(NCC1(N2CCN(c3ccccc3)CC2)CCOCC1)c1cccnc1Sc1ccccc1` [JNJ-47965567, N-[[4-(4-phenyl-piperazin-1-yl)tetrahydro-2H-pyran-4-yl]-methyl]-2-(phenyl-thio) nicotinamide], the IC50 came out at 0.005 ± 0.0005 µM.

For `Cc1c(S(=O)(=O)[O-])oc2c1C(=O)C(=O)c1c-2ccc2c1CCCC2(C)C.[Na+]` [Tanshinone TIIAS, tanshinone IIS sulfonic sodium], the half-inhibitory concentration (IC50) is 0.3 µM and 0.31 µM.
